In the assay the target is Female germline-specific tumor suppressor gld-1 (Caenorhabditis elegans) (UniProt Q17339). In words: potency of GLD-1/TGE RNA binding inhibitors, late-stage follow-up, biochemical, fluorescence polarization, IC50, powder samples (AID 488797). Conditions: GLD-1 / FL-TGE RNA binding. For orientation: Fluorescence polarisation rises when a labelled molecule tumbles more slowly, as on binding a larger partner.

What is called IC50 is the concentration that gives 50% inhibition.

Activity calls are given as the source filed them.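 How the source made its calls: active means half-inhibiting concentration IC50 at or below 10 µM; inactive means IC50 above 10 µM.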

Chain of Female germline-specific tumor suppressor gld-1 (Caenorhabditis elegans) (Q17339 whole entry, looked up): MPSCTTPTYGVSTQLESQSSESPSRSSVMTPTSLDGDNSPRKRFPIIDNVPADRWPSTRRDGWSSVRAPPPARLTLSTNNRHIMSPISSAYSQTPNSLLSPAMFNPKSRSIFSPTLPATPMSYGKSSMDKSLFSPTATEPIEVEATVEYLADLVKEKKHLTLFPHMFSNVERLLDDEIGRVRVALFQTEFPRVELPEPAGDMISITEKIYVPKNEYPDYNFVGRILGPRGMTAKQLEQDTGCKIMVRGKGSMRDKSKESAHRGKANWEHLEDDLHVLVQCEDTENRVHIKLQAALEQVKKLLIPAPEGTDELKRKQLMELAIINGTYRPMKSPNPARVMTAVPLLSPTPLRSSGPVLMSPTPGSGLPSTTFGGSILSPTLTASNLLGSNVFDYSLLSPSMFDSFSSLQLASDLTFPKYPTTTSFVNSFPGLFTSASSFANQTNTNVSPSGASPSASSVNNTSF

Consider `COc1ccc(/C=C(\CC(=O)O)c2nc3ccccc3s2)cc1O`, for which the IC50 is 2.17 µM. As to `CCOC(=O)c1c(C)oc2c1cc(NS(=O)(=O)c1ccc(C)cc1)c1ccccc12`, the IC50 was > 59.6 µM (inactive).

`CCCCn1c(=O)[nH]c2nc3cc(NC(C)=O)ccc3nc2c1=O`: the IC50 is 2.62 µM.

With `Nc1ccc(O)c2c1C(=O)c1ccccc1C2=O`, the concentration for half-maximal inhibition (IC50) is 3 µM. With `O=C(CN1C(=O)NC2(CCCCC2)C1=O)Oc1ccc2c(C(F)(F)F)cc(=O)oc2c1` the figure was 5.62 µM; with `Cc1ccc(S(=O)(=O)Nc2cc3c(C(=O)Nc4ccccc4)c(C)oc3c3ccccc23)c(C)c1`, 1.14 µM. As to `CCN(CC)S(=O)(=O)c1ccc(N2CCCC2)c(NS(=O)(=O)c2ccc(F)cc2)c1`, the IC50 result was “inactive”. For `Nc1c(O)ccc2c1C(=O)c1ccccc1C2=O`, the IC50 was 4.17 µM.

On to `O=c1[nH]c2cc3ccccc3cc2nc1C(F)(F)F`, for which the IC50 was 2.5 µM. For the compound `O=C1C2=C(SCCS2)C(=O)N1CCCO`, the IC50 is 4.73 µM.

On to `Cc1ccc(S(=O)(=O)Nc2cc3c(C(=O)Nc4ccccc4)c(C)oc3c3ccccc23)cc1`, for which the IC50 is 1.66 µM. Take `CC1=CC(=O)c2c(O)ccc(O)c2C1=O`: the IC50 is 5.67 µM. With `Nc1ccc2nonc2c1[N+](=O)[O-]`, the IC50 is > 59.6 µM (inactive). As to `COc1ccc(C=Nc2c(-c3ccco3)nc3ccccn23)cc1OC`, the IC50 was > 59.6 µM (inactive).

Regarding `O=c1[nH]c(=O)c2nc3ccccc3nc2[nH]1`, the IC50 result is “inactive”.

For the origin of these results see PubChem BioAssay AID488797 (The Scripps Research Institute Molecular Screening Center, 2010).
